Results from patent US20260356860A1, “2-SUBSTITUTED 3,4A,5,7,8,8A-HEXAHYDRO-4H-THIOPYRANO[4,3-DJPYRIMIDIN-4-ONES FOR WOUND TREATMENT” (priority 2022, published 2026).

How the values were obtained:
Tankyrase 2 (TNKS2) = target: T1, Tankyrase 2 (TNKS2) (Homo sapiens, UniProt Q9H2K2); assay: TNK2 Binding Assay (Tankyrase 2 ribosylation, chemiluminescence); assay type: biochemical
T1 sequence (Q9H2K2 1-1166): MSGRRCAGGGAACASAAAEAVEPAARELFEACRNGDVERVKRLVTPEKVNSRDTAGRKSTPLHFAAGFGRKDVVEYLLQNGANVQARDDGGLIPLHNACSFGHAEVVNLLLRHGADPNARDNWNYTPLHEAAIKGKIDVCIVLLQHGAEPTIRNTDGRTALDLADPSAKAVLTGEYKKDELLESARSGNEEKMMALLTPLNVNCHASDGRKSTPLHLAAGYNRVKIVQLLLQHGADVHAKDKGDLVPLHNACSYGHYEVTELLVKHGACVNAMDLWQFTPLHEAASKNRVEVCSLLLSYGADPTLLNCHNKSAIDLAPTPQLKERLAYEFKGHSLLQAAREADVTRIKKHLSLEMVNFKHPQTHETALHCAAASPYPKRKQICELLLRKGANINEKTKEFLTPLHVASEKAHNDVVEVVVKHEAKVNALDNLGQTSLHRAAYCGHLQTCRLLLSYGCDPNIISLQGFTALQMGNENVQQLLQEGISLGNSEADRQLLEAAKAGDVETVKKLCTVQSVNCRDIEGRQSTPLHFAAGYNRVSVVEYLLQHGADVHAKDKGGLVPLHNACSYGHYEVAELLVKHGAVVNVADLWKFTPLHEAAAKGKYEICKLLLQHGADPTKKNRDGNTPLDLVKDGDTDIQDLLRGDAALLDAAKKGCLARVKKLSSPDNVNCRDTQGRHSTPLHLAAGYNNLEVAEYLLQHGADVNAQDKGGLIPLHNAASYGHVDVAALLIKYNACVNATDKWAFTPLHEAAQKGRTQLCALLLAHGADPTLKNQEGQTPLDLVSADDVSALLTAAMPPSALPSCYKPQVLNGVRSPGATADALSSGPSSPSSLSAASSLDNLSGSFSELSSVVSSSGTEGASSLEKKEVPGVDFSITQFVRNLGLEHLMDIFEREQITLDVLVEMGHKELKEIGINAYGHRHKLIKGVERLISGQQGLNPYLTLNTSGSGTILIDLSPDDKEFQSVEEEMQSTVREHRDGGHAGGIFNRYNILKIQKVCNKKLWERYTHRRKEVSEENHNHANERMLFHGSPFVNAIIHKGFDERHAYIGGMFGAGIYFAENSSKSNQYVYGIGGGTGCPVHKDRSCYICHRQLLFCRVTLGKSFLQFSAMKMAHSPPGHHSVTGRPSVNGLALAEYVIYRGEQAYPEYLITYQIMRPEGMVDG
Method: Tankyrase 2 assay (n=3) was performed with the following steps: step 1, coating a 96-well plate with 50 μL/well of histone solution; step 2, conducting ribosylation reaction; and step 3, detection.
Step 1: Coating a 96-Well Plate with 50 μL/Well of Histone Solution.
A 5× histone mixture was diluted 1:5 with PBS to make a 1× histone in PBS mixture. 50 μL of the histone mixture was added to each well and incubated at 4° C. overnight. The plate was washed three times using 200 μL PBST buffer (1×PBS containing 0.05% Tween*20 (polysorbate 20) per well. The plate was tapped onto a clean paper towel to remove the liquid. The wells were blocked by adding 200 μL of blocking buffer 3 to each well. The plate was incubated at room temperature for at least 90 minutes. The plate was washed three times with 200 μL PBST buffer. The plate was tapped onto a clean paper towel to remove the liquid.
A fresh solution of 10 mM DTT in water was prepared.
A master mix was prepared and delivered to each well (25 μL/well). Master mix delivered to each well: (2.5 μL of 10×PARP assay buffer (purchased from BPS Bioscience)+2.5 μL of PARP substrate mixture 2+17.5 μL of water+2.5 μL of 10 mM fresh DTT). The concentration of DTT in the master mix was 1 mM. 25 μL of master mix was added to each well.
1×PARP buffer with DTT was prepared. 10×PARP assay buffer was diluted to 1×PARP assay buffer containing DTT by adding 1 volume of 10×PARP assay buffer+1 volume of 10 mM DTT+8 volumes of water. The concentration of DTT in the 1×PARP assay buffer was 1 mM.
5 μL of a test inhibitor was added to each well labeled as “Test Inhibitor.” For the “Positive Control,” the PARP inhibitor, XAV939, was used. For the negative control, no inhibitor is added to the assay mix.
The Tankyrase 2 (TNKS2) enzyme on ice was thawed. The tube containing the enzyme was spun briefly to recover the full content of the tube. The amount of TNKS2 enzyme required for the assay was calculated and the enzyme was diluted to 0.5 ng/μL with 1×PARP assay buffer with DTT. 16) The final concentration of TNKS2 enzyme in the assay was 2 nM. The reaction was initiated by adding 10 μL of diluted TNKS2 enzyme to each well designated “Positive Control” and “Test Inhibitor.” To each well designated as “Blank,” 10 μL of 1×PARP assay buffer with DTT was added. The plate was incubated at room temperature for 1 hour. The plate was washed three times with 100 μL of PBST buffer and the plate was tapped onto a clean paper towel.
1) Streptavidin-HRP was diluted 1:50 in Blocking buffer (purchased from BPS Bioscience) 3.50 μL of diluted Streptavidin-RP was added to each well and incubated for 30 minutes at room temperature. The plate was washed three times with 100 μL of PBST buffer and tapped onto a clean paper towel. Just before use, 1 volume of ELISA ECL Substrate A and 1 volume of ELISA ECL Substrate B were mixed on ice; and 100 μL was added to each well. Immediately, the plate was read in a luminometer or microtiter-plate reader capable of reading chemiluminescence. The “Blank” value was subtracted from all other values.

new porcine skin = assay: Strain (tensile strength) of healed wound; assay type: in vivo; settings: day 21; for Strain (tensile strength) / Strain (tensile strength), Mean: topical
Method: Additional tests were performed including elasticity (Table 12); max force (Table 13); tensile strength (strain) (Table 14); energy peak (Table 15); rete-ridge formation; and collagen organization (plane polarized light) (FIG. 24) of the healed wound sites, described as follows.
A is saline (control), B is serum formulation (vehicle), C is GO-HA (vehicle), D is Compound 1; E is Compound 1+GO-HA; F is Compound 8; G is Compound 8+GO-HA; H is Compound 10; and J is Compound 10+GO-HA.
Strain (tensile strength) (N/mm^2) is the force required to pull/stretch a material to a breaking point. A 20% improvement over saline considered good. All compounds of Formula (I) tested with or without GO-HA ranged from 36% to 142% improvement in tensile strength compared to the saline control.

| Structure (SMILES) | IC50 (Tankyrase 2 (TNKS2)) [nM] | Strain (tensile strength) (new porcine skin; individual value 1) [N/mm^2] | Strain (tensile strength) (new porcine skin; individual value 2) [N/mm^2] | Strain (tensile strength) (new porcine skin; individual value 3) [N/mm^2] | Strain (tensile strength) (new porcine skin; individual value 4) [N/mm^2] | Strain (tensile strength), Mean (new porcine skin) [N/mm^2] | improvement in tensile strength (strain) compared to the saline control (new porcine skin) [%] | Strain (tensile strength) (new porcine skin; individual value 5) [N/mm^2] |
| --- | --- | --- | --- | --- | --- | --- | --- | --- |
| O=c1[nH]c(-c2ccc(-c3ccc(Br)nc3)cc2)nc2c1CSCC2 [Compound 7, 2-(4-(6-bromopyridin-3-yl)phenyl)-3,5,7,8-tetrahydro-4H-thiopyrano [4,3-d]pyrimidin-4-one] | 5 | – | – | – | – | – | – | – |
| O=c1[nH]c(-c2ccc(B(O)O)cc2)nc2c1CSCC2 [Compound 1, (4-(4-oxo-3,5,7,8-tetrahydro-4H-thiopyrano[4,3-d]pyrimidin-2-yl)phenyl)boronic acid] | 26 | 2.568 | 3.906 | 10.226 | 5.738 | 5.609 | – | – |
| O=c1[nH]c(-c2ccc(-c3ccc(B(O)O)cc3)cc2)nc2c1CSCC2 [Compound 10, (4′-(4-oxo-3,5,7,8-tetrahydro-4H-thiopyrano[4,3-d]pyrimidin-2-yl)-[1,1′-biphenyl]-4-yl)boronic acid] | 3.29 | 6.792 | 11.592 | 5.862 | 5.506 | 7.438 | 105 | – |
| CC(C)(OCCO)c1ccc(-c2nc3c(c(=O)[nH]2)CSCC3)cc1 [Compound 8, 2-(4-(2-(2-hydroxyethoxy)propan-2-yl)phenyl)-3,5,7,8-tetrahydro-4H-thiopyrano[4,3-d]pyrimidin-4-one] | 3.16 | 7.640 | 4.427 | 2.939 | 6.900 | 4.964 | – | 2.913 |
| COC(=O)NCCOC(C)(C)c1ccc(-c2nc3c(c(=O)[nH]2)CSCC3)cc1 [Compound 18, methyl (2-((2-(4-(4-oxo-3,5,7,8-tetrahydro-4H-thiopyrano[4,3-d]pyrimidin-2-yl)phenyl)propan-2-yl)oxy)ethyl)carbamate] | 4 | – | – | – | – | – | – | – |
